{
  "source": "patent US8859628B2",
  "about": "“Method for preventing, treating and diagnosing disorders of protein aggregation” (priority 2003, dated 2014)",
  "key": {"TgCRND8 mice [1]": {"tested_on": "TgCRND8 mice", "assay": "Cerebral Aβ content (Aβ40 and Aβ42 kits on hemi-brain homogenates)", "format": "in vivo, mouse", "parameters": "Total Aβ: unit not given here", "description": "(§1) Plasma and Cerebral Aβ Content—Hemi-brain samples were homogenized in a buffered sucrose solution, followed by either 0.4% diethylamine/100 mM NaCl for soluble Aβ levels or cold formic acid for the isolation of total Aβ. After neutralization the samples were diluted and analyzed for Aβ40 and Aβ42 using commercially available kits (BIOSOURCE International). Each hemisphere was analyzed in triplicate with the mean±SEM reported. Western blot analyses were performed on all fractions using urea gels for Aβ species analyses. Aβ was detected using 6E10 (BIOSOURCE International) and Enhanced Chemiluminenscence (Amersham).\nas §1, with “reported.” for “reported. Western blot analyses were performed on all fractions using urea gels for Aβ species analyses. Aβ was detected using 6E10 (BIOSOURCE International) and Enhanced Chemiluminenscence (Amersham).”"}, "TgCRND8 mice [2]": {"tested_on": "TgCRND8 mice", "assay": "Survival census (Kaplan-Meier)", "format": "in vivo, mouse", "details": "vs untreated TgCRND8", "description": "Survival Census—The probability of survival was assessed by the Kaplan-Meier technique, computing the probability of survival at every occurrence of death, thus making it suitable for small sample sizes. For the analyses of survival, 35 mice were used for each treatment group. The comparison between treatments was reported using the Tarone-Ware test."}, "Aβ42": {"biological_target": "T1, Aβ42 (Homo sapiens, UniProt P05067)", "T1 construct": "The importance of residues 1-42 (Aβ42) in Alzheimer's disease was highlighted", "T1 sequence (P05067 672-713 limits assumed)": "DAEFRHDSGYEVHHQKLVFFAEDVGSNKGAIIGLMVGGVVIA", "details": "cited from earlier work"}, "TgCRND8 mice [3]": {"tested_on": "TgCRND8 mice", "assay": "Morris Water Maze, spatial reference memory version, three-day trial paradigm (treatment/reversal study)", "format": "in vivo, mouse", "details": "1 month treatment from 5 months of age, three-day paradigm", "description": "A cohort entered the study at 5 months of age and outcomes were analyzed at 6-months of age. The body weight, coat characteristics and in cage behavior was monitored. All experiments were performed according to the Canadian Council on Animal Care guidelines.\nBehavioral Test—Reversal Study—Mice entered the Morris water maze test with a hidden platform on day one without pretraining. Mice were tested for 3 days with six trials per day. On the fourth day, the platform was removed from the pool and each mouse received one 30-s swim probe trial. On the last day the animals underwent a cue test in order to evaluate swimming ability, eye sight and general cognition. The cue test is composed at the platform being placed in a different quadrant than that used for testing and is tagged with a flag. Animals are allowed 60 s to find the platform. […] Behavioural data was analysed using a mixed model of factorial analysis of variance (ANOVA) with drug or genotype and training sessions as repeated measure factors.\nThe cognitive function of TgCRND8 mice was assessed using the spatial reference memory version of the Morris Water Maze using a three day trial paradigm (FIGS. 4-8).\nBehavioural data was analysed using a mixed model of factorial analysis of variance (ANOVA) with drug and genotype as between subject variables and training sessions as within subject variable.\nIn these experiments, the dosage and oral administration of compounds, and the behavioral and neurochemical assays were the same as those employed in the above treatment experiments."}, "TgCRND8 mice [4]": {"tested_on": "TgCRND8 mice", "assay": "Cerebral amyloid plaque burden (anti-Aβ immunostaining, image analysis)", "format": "in vivo, mouse", "description": "(§2) Cerebral amyloid burden—Brains were removed and one hemisphere was fixed in 4% paraformaldehyde and embedded in paraffin wax in the mid saggital plane. To generate sets of systematic uniform random sections, 5 μm serial sections were collected across the entire hemisphere. Sets of sections at […] intervals were used for analyses (10-14 sections/set). Plaque were identified after antigen retrieval with formic acid, and incubated with primary anti-Aβ antibody (Dako M-0872), followed by secondary antibody (Dako StreptABCcomplex/horseradish kit). End products were visualized with DAB counter-stained with hematoxylin. Amyloid plaque burden was assessed using Leco IA-3001 image analysis software interfaced with Leica microscope and Hitachi KP-M1U CCD video camera. Vascular burden was analyzed similarly and a dissector was used to measure the diameter of affected vessels.\nas §2, with “camera.” for “camera. Vascular burden was analyzed similarly and a dissector was used to measure the diameter of affected vessels.”"}, "TgCRND8 mice [5]": {"tested_on": "TgCRND8 mice", "assay": "Morris Water Maze, spatial reference memory version, five-day trial paradigm (prevention study)", "format": "in vivo, mouse", "details": "6 months of age", "description": "Age and sex-matched cohorts of TgCRND8 mice and non-transgenic littermates (n=35 in each cohort) were either untreated, or were given a compound of the present invention as indicated below at 30 mg/day/mouse beginning at age of about 6 weeks. The mice were followed for outcome measures cognitive function, brain Aβ levels, brain pathology, and survival at 4 months and 6 months of age.\nTwo cohorts entered the study at 6 weeks of age and outcomes were analyzed at 4- and 6-months of age. The body weight, coat characteristics and in cage behavior was monitored. All experiments were performed according to the Canadian Council on Animal Care guidelines.\nBehavioral tests—After non-spatial pre-training, mice underwent place discrimination training for 5 days with 4 trials per day. Behavioral data was analyzed using a mixed model of factorial analysis of variance (ANOVA) with drug or genotype and training sessions as repeated measure factors.\nThe cognitive function of TgCRND8 mice was assessed using the spatial reference memory version of the Morris Water Maze using a five-day trial paradigm (FIGS. 1C-1H). […] The improved performance was also not due to nutritional or caloric effects because body weight, activity, and coat condition were not different between treated and untreated cohorts. […] Gender effects were not significant between any treatment group (p=0.85)."}, "TgCRND8 mice [6]": {"tested_on": "TgCRND8 mice", "assay": "Plasma Aβ levels", "format": "in vivo, mouse", "description": "as §1\nas §1, with “reported.” for “reported. Western blot analyses were performed on all fractions using urea gels for Aβ species analyses. Aβ was detected using 6E10 (BIOSOURCE International) and Enhanced Chemiluminenscence (Amersham).”"}, "AD patients": {"tested_on": "AD patients", "details": "human, in vivo; cited from earlier work"}, "[7]": {"details": "1 month treatment from 5 months of age"}, "[8]": {"details": "1 month treatment, 30 mg/mouse/day from 5 months, analyzed at 6 months of age"}, "[9]": {"details": "4 month prevention, 30 mg/mouse/day from 6 weeks of age"}, "[10]": {"details": "6 month prevention, 30 mg/mouse/day from 6 weeks of age"}},
  "data": [
    {"smiles": "O[C@H]1[C@H](O)[C@@H](O)[C@H](O)[C@@H](O)[C@H]1O", "note": "[Myo-Inositol, myo-inositol, reference compound]", "values": [
      {"measurement": "Aβ load vs untreated", "setting": "TgCRND8 mice [1]; [7]", "value": "did not affect the plaque burden or Aβ load"},
      {"measurement": "Total Aβ", "setting": "TgCRND8 mice [1]; [8]", "value": "20490 ± 526"},
      {"measurement": "Total Aβ", "setting": "TgCRND8 mice [1]; [9]", "value": "4969 ± 434"},
      {"measurement": "Total Aβ", "setting": "TgCRND8 mice [1]; [10]", "value": "17489 ± 354"},
      {"measurement": "effect on survival of TgCRND8 mice", "setting": "TgCRND8 mice [2]", "value": "did not affect overall survival significantly"},
      {"measurement": "stabilization of Aβ42 micelle", "setting": "Aβ42", "value": "stabilizes a small micelle of Aβ42"},
      {"measurement": "cognitive function, treated TgCRND8 mice vs non-Tg littermates (words)", "setting": "TgCRND8 mice [3]", "value": "significantly different from treated non-Tg littermates"},
      {"measurement": "plaque burden vs untreated", "setting": "TgCRND8 mice [4]; [7]", "value": "did not affect the plaque burden or Aβ load"},
      {"measurement": "Plaque Area", "setting": "TgCRND8 mice [4]; [8]", "value": "469968 ± 35664", "unit": "μm^2"},
      {"measurement": "Plaque Count", "setting": "TgCRND8 mice [4]; [8]", "value": "1324 ± 69"},
      {"measurement": "Total Plaque Area/Total Brain Area", "setting": "TgCRND8 mice [4]; [8]", "value": "0.153 ± 0.088", "unit": "%"},
      {"measurement": "Plaque Area", "setting": "TgCRND8 mice [4]; [9]", "value": "91902 ± 7453", "unit": "μm^2"},
      {"measurement": "Plaque Count", "setting": "TgCRND8 mice [4]; [9]", "value": "649 ± 50"},
      {"measurement": "Total Plaque Area/Total Brain Area", "setting": "TgCRND8 mice [4]; [9]", "value": "0.023 ± 0.004", "unit": "%"},
      {"measurement": "Plaque Area", "setting": "TgCRND8 mice [4]; [10]", "value": "400013 ± 19638", "unit": "μm^2"},
      {"measurement": "Plaque Count", "setting": "TgCRND8 mice [4]; [10]", "value": "927 ± 78"},
      {"measurement": "Total Plaque Area/Total Brain Area", "setting": "TgCRND8 mice [4]; [10]", "value": "0.100 ± 0.005", "unit": "%"},
      {"measurement": "cognitive function, treated vs untreated TgCRND8 mice (words)", "setting": "TgCRND8 mice [5]", "value": "did not alter cognitive function"},
      {"measurement": "Plasma Aβ Levels", "setting": "TgCRND8 mice [6]; 1 month treatment", "value": "2110 ± 174", "unit": "pg/mL"},
      {"measurement": "effect on plasma Aβ levels in comparison to untreated (words)", "setting": "TgCRND8 mice [6]; [7]", "value": "Neither myo-inositol, epi-inositol nor scyllo-inositol treatment had any effect on plasma Aβ levels"},
      {"measurement": "Plasma Aβ Levels", "setting": "TgCRND8 mice [6]; 4 month prevention", "value": "942 ± 30", "unit": "pg/mL"},
      {"measurement": "Plasma Aβ Levels", "setting": "TgCRND8 mice [6]; 6 month prevention", "value": "969 ± 67", "unit": "pg/mL"}
    ]},
    {"smiles": "O[C@H]1[C@H](O)[C@@H](O)[C@H](O)[C@@H](O)[C@H]1O", "note": "[inositol]", "values": [
      {"measurement": "CAMCOG subscales orientation and language", "setting": "AD patients", "value": "did show significant improvement"}
    ]}
  ]
}
